In one data set the target is T1, hMPV-N46 (127-172) (Human metapneumovirus, UniProt Q6WB98).
T1 construct: hMPV-N46 (127-172)
Nature of the data set: SPR affinity to hMPV-N46 coupled on CM5 chip. The class given is binding.

In a further data set the test system is hPIV3 C243 virus strain. The class given is cell-based, hPIV. Particulars: LLC-MK2 cells, hPIV3 C243, plaque reduction; read-out: EC50 against hPIV3 virus. The procedure, abridged: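 LLC-MK2 cells (40,000/well) infected with about 200 PFU of virus preincubated 1 h with the sample, then overlaid with 0.8% CMC medium containing the sample (0.5% DMSO) for 1 day at 37 °C. Plaques immunostained with TrueBlue and counted; 8 concentrations in duplicate, EC50 from a four-parameter fit.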

Data set [1] is described as follows: Cytotoxicity test in HEp-2 cells (CCK8 cell viability). The class given is cell-based. Particulars: human; HEp-2 cells, CCK8, 1 day; read-out: CC50. The procedure, abridged:
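Compound dilutions (final DMSO 0.5%) were applied for 1 day to HEp-2 cells plated at 30,000 per well the day before. CCK8 signal gave survival relative to cell and medium controls, and a four-parameter log(inhibitor)-response fit yielded CC50.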

Where a SMILES comes first, the peptide text is derived from it. The star is where a group is joined. Succinyl(4-O-cholesteryl) = CC(C)CCC[C@@H](C)[C@H]1CC[C@H]2[C@@H]3CC=C4C[C@@H](OC(=O)CCC(=O)*)CC[C@]4(C)[C@H]3CC[C@]12C

T1 sequence (Q6WB98 127-172): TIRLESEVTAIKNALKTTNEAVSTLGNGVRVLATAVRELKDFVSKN

Consider `CC[C@H](C)[C@H](NC(=O)[C@H](CCCCN)NC(=O)[C@H](CCCCN)NC(=O)[C@H](CC(C)C)NC(=O)[C@H](CO)NC(=O)[C@H](CCC(=O)O)NC(=O)[C@H](CCC(=O)O)NC(=O)[C@@H](NC(=O)[C@H](CCCCN)NC(=O)[C@H](CCCCN)NC(=O)[C@H](CC(N)=O)NC(=O)[C@@H](NC(=O)[C@H](CCC(=O)O)NC(=O)[C@H](CCC(=O)O)NC(=O)[C@@H](NC(=O)[C@H](CCCCN)NC(=O)[C@H](CCCCN)NC(=O)[C@H](CCCCN)NC(=O)[C@H](CC(=O)O)NC(=O)[C@H](Cc1ccccc1)NC(=O)[C@H](CCC(=O)O)NC(=O)[C@H](CC(=O)O)NC(C)=O)[C@@H](C)CC)C(C)C)[C@@H](C)CC)C(=O)N[C@@H](CCC(=O)O)C(=O)N[C@@H](CCC(=O)O)C(=O)N[C@@H](CO)C(=O)N[C@@H](CC(=O)O)C(=O)N[C@@H](CCCCN)C(=O)N[C@@H](CCCCN)C(=O)N[C@@H](CC(C)C)C(=O)N[C@@H](CCC(=O)O)C(=O)N[C@@H](CCC(=O)O)C(=O)N[C@H](C(=O)NCC(=O)N[C@@H](CO)C(=O)NCC(=O)N[C@@H](CO)C(=O)NCC(=O)N[C@@H](CCCCNC(=O)CCC(=O)O[C@H]1CC[C@@]2(C)C(=CC[C@H]3[C@@H]4CC[C@H]([C@H](C)CCCC(C)C)[C@@]4(C)CC[C@@H]32)C1)C(N)=O)C(C)C` [Compound 15] (Ac-DEFDKKKIEEVNKKIEESLKKIEESDKKLEEVGSGSGK(Succinyl(4-O-cholesteryl))-NH2), for which binding at hMPV-N46 (127-172) was put at a Kd of 38.1 nM. The EC50 with hPIV3 C243 virus strain is 20.7 nM. In data set [1], the CC50 at 1 day stood at 8900 nM.

Consider “Ac-LVKKIDEFDASISQVNEKINQSLEEIRKSDELLHNVGSGSGK(Succinyl(4-O-cholesteryl))-NH2 [Compound 29]”, for which the Kd on hMPV-N46 (127-172) is 48.2 nM. Also, the EC50 in the data set with hPIV3 C243 virus strain worked out at 26.3 nM. In data set [1], the CC50 at 1 day worked out at 15000 nM.

In turn, `CC[C@H](C)[C@H](NC(=O)[C@H](CCCCN)NC(=O)[C@H](CCCCN)NC(=O)[C@H](CC(C)C)NC(=O)[C@H](CO)NC(=O)[C@H](CCC(=O)O)NC(=O)[C@H](CCC(=O)O)NC(=O)[C@@H](NC(=O)[C@H](CCCCN)NC(=O)[C@H](CCCCN)NC(=O)[C@H](CC(N)=O)NC(=O)[C@@H](NC(=O)[C@H](CCC(=O)O)NC(=O)[C@H](CCC(=O)O)NC(=O)[C@@H](NC(=O)[C@H](CCCCN)NC(=O)[C@H](CCCCN)NC(=O)[C@H](CC(=O)O)NC(=O)[C@H](Cc1ccccc1)NC(=O)[C@H](CCC(=O)O)NC(=O)[C@H](CC(=O)O)NC(=O)[C@H](Cc1c[nH]c2ccccc12)NC(C)=O)[C@@H](C)CC)C(C)C)[C@@H](C)CC)C(=O)N[C@@H](CCC(=O)O)C(=O)N[C@@H](CCC(=O)O)C(=O)N[C@@H](CO)C(=O)N[C@@H](CC(=O)O)C(=O)N[C@@H](CCCCN)C(=O)N[C@@H](CCCCN)C(=O)N[C@@H](CC(C)C)C(=O)N[C@@H](CCC(=O)O)C(=O)N[C@@H](CCC(=O)O)C(=O)N[C@H](C(=O)N[C@@H](CC(N)=O)C(=O)N[C@@H](C)C(=O)N[C@@H](CCC(=O)O)C(=O)N[C@@H](C)C(=O)N[C@@H](C)C(=O)N[C@@H](C)C(=O)N[C@@H](CCCCN)C(=O)N[C@@H](CCCCNC(=O)CCC(=O)O[C@H]1CC[C@@]2(C)C(=CC[C@H]3[C@@H]4CC[C@H]([C@H](C)CCCC(C)C)[C@@]4(C)CC[C@@H]32)C1)C(N)=O)C(C)C` [Compound 40] (Ac-WDEFDKKIEEVNKKIEESLKKIEESDKKLEEVNAEAAAKK(Succinyl(4-O-cholesteryl))-NH2) displayed a Kd at hMPV-N46 (127-172) of 2470 nM. Also, the EC50 in the data set with hPIV3 C243 virus strain came to 22.2 nM. In data set [1], the CC50 at 1 day amounted to 13000 nM.

`CC[C@H](C)[C@H](NC(=O)[C@H](CCCCN)NC(=O)[C@H](CCC(=O)O)NC(=O)[C@H](CC(C)C)NC(=O)[C@H](CO)NC(=O)[C@H](CCC(N)=O)NC(=O)[C@H](CC(N)=O)NC(=O)[C@@H](NC(=O)[C@H](CCCCN)NC(=O)[C@H](CCC(=O)O)NC(=O)[C@H](CC(N)=O)NC(=O)[C@@H](NC(=O)[C@H](CCC(N)=O)NC(=O)[C@H](CO)NC(=O)[C@H](C)NC(=O)[C@H](CC(=O)O)NC(=O)[C@H](Cc1ccccc1)NC(=O)[C@@H](NC(=O)[C@H](CC(C)C)NC(=O)[C@H](CCC(=O)O)NC(=O)[C@H](CC(=O)O)NC(=O)[C@H](Cc1ccc(O)cc1)NC(C)=O)C(C)C)C(C)C)[C@@H](C)CC)C(=O)N[C@@H](CCCNC(=N)N)C(=O)N[C@@H](CCCCN)C(=O)N[C@@H](CO)C(=O)N[C@@H](CC(=O)O)C(=O)N[C@@H](CCC(=O)O)C(=O)N[C@@H](CC(C)C)C(=O)N[C@@H](CC(C)C)C(=O)N[C@@H](Cc1c[nH]cn1)C(=O)N[C@@H](CC(N)=O)C(=O)N[C@H](C(=O)NCC(=O)N[C@@H](CO)C(=O)NCC(=O)N[C@@H](CO)C(=O)NCC(=O)N[C@@H](CCCCNC(=O)CCC(=O)O[C@H]1CC[C@@]2(C)C(=CC[C@H]3[C@@H]4CC[C@H]([C@H](C)CCCC(C)C)[C@@]4(C)CC[C@@H]32)C1)C(N)=O)C(C)C` [Compound 25] (Ac-YDELVFDASQVNEKINQSLEKIRKSDELLHNVGSGSGK(Succinyl(4-O-cholesteryl))-NH2) had a Kd on hMPV-N46 (127-172) of 21100 nM. In addition, the EC50 in the data set with hPIV3 C243 virus strain came to 29.4 nM. In addition, in data set [1], the CC50 at 1 day was determined as 7500 nM.

For the compound “Ac-WDEFDASISQVNEKINQSLEEIRKSDELLHNVNAGLGSGSGK(Succinyl(4-O-cholesteryl))-NH2 [Compound 27]”, on hMPV-N46 (127-172), the Kd stood at 2920 nM. In addition, in the data set on hPIV3 C243 virus strain, the EC50 turned out to be 27.2 nM. In data set [1], the CC50 at 1 day was found to be 18400 nM.

As to `CC[C@H](C)[C@H](NC(=O)[C@H](CO)NC(=O)[C@H](C)NC(=O)[C@H](CC(=O)O)NC(=O)[C@H](Cc1ccccc1)NC(=O)[C@H](CCC(=O)O)NC(=O)[C@H](CC(=O)O)NC(C)=O)C(=O)N[C@@H](CO)C(=O)N[C@@H](CCC(N)=O)C(=O)N[C@H](C(=O)N[C@@H](CC(N)=O)C(=O)N[C@@H](CCC(=O)O)C(=O)N[C@@H](CCCCN)C(=O)N[C@H](C(=O)N[C@@H](CC(N)=O)C(=O)N[C@@H](CCC(N)=O)C(=O)N[C@@H](CO)C(=O)N[C@@H](CC(C)C)C(=O)N[C@@H](CCC(=O)O)C(=O)N[C@@H](CCC(=O)O)C(=O)N[C@H](C(=O)N[C@@H](CCCNC(=N)N)C(=O)N[C@@H](CCCCN)C(=O)N[C@@H](CO)C(=O)N[C@@H](CC(=O)O)C(=O)N[C@@H](CCC(=O)O)C(=O)N[C@@H](CC(C)C)C(=O)N[C@@H](CC(C)C)C(=O)N[C@@H](Cc1c[nH]cn1)C(=O)N[C@@H](CC(N)=O)C(=O)N[C@@H](CCC(=O)O)C(=O)N[C@@H](C)C(=O)N[C@@H](C)C(=O)N[C@@H](C)C(=O)N[C@@H](CCCCN)C(=O)N[C@@H](CCCCNC(=O)CCC(=O)O[C@H]1CC[C@@]2(C)C(=CC[C@H]3[C@@H]4CC[C@H]([C@H](C)CCCC(C)C)[C@@]4(C)CC[C@@H]32)C1)C(N)=O)[C@@H](C)CC)[C@@H](C)CC)C(C)C` [Compound 28] (Ac-DEFDASISQVNEKINQSLEEIRKSDELLHNEAAAKK(Succinyl(4-O-cholesteryl))-NH2), the Kd on hMPV-N46 (127-172) amounted to 209 nM. The EC50 in the data set with hPIV3 C243 virus strain is 54.4 nM. Besides, the CC50 at 1 day in data set [1] came to 8800 nM.

In general, Kd refers to the constant that tells how readily two partners part at equilibrium. A low value points to tighter binding. A word on the EC50: it is the concentration that produces a half-maximal response. The CC50 is the concentration that lowers cell viability or growth by half.

The record behind these values is patent US20260250325A1, “Antiviral Polypeptide Membrane Fusion Inhibitor, and Preparation Method and Application Thereof” (priority 2025, published 2026).
